This is an account of results in patent publication US11253499B2, “Compounds” (priority 2017, dated 2022).

Read-outs that look alike come from different tables or passages of the source. A value given as a limit tells only on which side of the number the result lay.

Experiment [1] deals with M. tuberculosis H37Rv-GFP. It counts as cell-based, Mycobacterium tuberculosis. The conditions noted are these: read-out: EC50_H37Rv.
For experiment [2], the system named is Mycobacterium tuberculosis H37Rv in human macrophages THP-1.
Procedure: Mycobacterium tuberculosis In Vitro H37Rv in Human Macrophaqes THP-1 Inhibition Assay (Intracellular Assay)
Procedure was carried out as described in Sorrentino, F. et al. (2016) Antimicrob. Agents Chemother. 60 (1), 640-645 (supplemental material), except that before THP-1 infected cells were seeded in 384 well plates, infected macrophages were filtered in the last step of wash steps with a 40 um cell strainer to remove cell clumps and obtain single cell suspension.
The compounds of the examples were tested essentially in accordance with the above-mentioned assay (without the presence of ethionamide).
Where [3] appears, read: potentiation of ethionamide, ETH 0.1 μg/ml, […], 5 days at 37° C., […].

One may read the IC50 as the concentration that inhibits the measured activity by half. Consider `O=C(CCC(F)(F)F)N1CC(c2ccc(F)cc2)C1` [Example 1, 4,4,4-trifluoro-1-[3-(4-fluorophenyl)azetidin-1-yl]butan-1-one], for which the EC50 in experiment [1] was less than 50 nM. The concentration for half-maximal inhibition (IC50) in experiment [2] is less than 50 nM.
For `O=C(CCC(F)(F)F)N1CC(C2CCCC2)C1` [Example 5, 1-(3-cyclopentylazetidin-1-yl)-4,4,4-trifluoro-butan-1-one], the EC50 in experiment [1] (setting [3]) was less than 50 nM.
Still for that read-out and setting: to `O=C(CCC(F)(F)F)N1CC(C2CCCCC2)C1` [Example 6, 1-(3-cyclohexylazetidin-1-yl)-4,4,4-trifluoro-butan-1-one] belongs less than 50 nM; to `O=C(CCC(F)(F)F)N1CC(c2ncc(F)cc2F)C1` [Example 10, 1-[3-(3,5-difluoro-2-pyridyl)azetidin-1-yl]-4,4,4-trifluoro-butan-1-one], less than 50 nM; to `COc1ccc(C2CN(C(=O)CCC(F)(F)F)C2)cn1` [Example 22, 4,4,4-trifluoro-1-[3-(6-methoxy-3-pyridyl)azetidin-1-yl]butan-1-one], less than 50 nM.
With `O=C(CCC(F)(F)F)N1CC(c2cncc(C(F)(F)F)c2)C1` [Example 24, 4,4,4-trifluoro-1-[3-[5-(trifluoromethyl)-3-pyridyl]azetidin-1-yl]butan-1-one], the EC50 in experiment [1] (setting [3]) was in the range of 1000 to 10000 nM.
On the same count and under the same terms, next, `O=C(CCC(F)(F)F)N1CC(c2ccc(F)c(F)c2)C1` [Example 27, 1-[3-(3,4-difluorophenyl)azetidin-1-yl]-4,4,4-trifluoro-butan-1-one]: less than 50 nM; `O=C(CCC(F)(F)F)N1CC(c2ccncc2)C1` [Example 30, 4,4,4-trifluoro-1-[3-(4-pyridyl)azetidin-1-yl]butan-1-one]: 1000 to 10000 nM; `O=C(CCC(F)(F)F)N1CC(c2ccnc(F)c2)C1` [Example 31, 4,4,4-trifluoro-1-[3-(2-fluoro-4-pyridyl)azetidin-1-yl]butan-1-one]: 500 to 1000 nM.
Consider `O=C(CCC(F)(F)F)N1CC(c2ccnc(Cl)c2)C1` [Example 32, 1-[3-(2-chloro-4-pyridyl)azetidin-1-yl]-4,4,4-trifluoro-butan-1-one], for which the EC50 in experiment [1] (setting [3]) lay within 250 to 500 nM.
Same read-out and setting: to `O=C(CCC(F)(F)F)N1CC(c2ccc(F)nc2)C1` [Example 33, 4,4,4-trifluoro-1-[3-(6-fluoro-3-pyridyl)azetidin-1-yl]butan-1-one] belongs 500 to 1000 nM; to `O=C(CCC(F)(F)F)N1CC(N2CCC(F)(F)CC2)C1` [Example 35, 1-[3-(4,4-difluoro-1-piperidyl)azetidin-1-yl]-4,4,4-trifluoro-butan-1-one], 500 to 1000 nM; to `CC(C)Oc1ccc(C2CN(C(=O)CCC(F)(F)F)C2)cn1` [Example 36, 4,4,4-trifluoro-1-[3-(6-isopropoxy-3-pyridyl)azetidin-1-yl]butan-1-one], 50 to 250 nM.
On the same count and under the same terms, next, `O=C(CCC(F)(F)F)N1CC(c2ccc(OCC(F)(F)F)nc2)C1` [Example 37, 4,4,4-trifluoro-1-[3-[6-(2,2,2-trifluoroethoxy)-3-pyridyl]azetidin-1-yl]butan-1-one]: 250 to 500 nM; `O=C(CCC(F)(F)F)N1CC(N2CCCCC2)C1` [Example 39, 4,4,4-trifluoro-1-(3-(piperidin-1-yl)azetidin-1-yl)butan-1-one]: 1000 to 10000 nM; `O=C(CCC(F)(F)F)N1CC(C2CCC(F)(F)CC2)C1` [Example 40, 1-(3-(4,4-difluorocyclohexyl)azetidin-1-yl)-4,4,4-trifluorobutan-1-one]: 50 to 250 nM.
Still for that read-out and setting: next, `N#Cc1ccc(C2CN(C(=O)CCC(F)(F)F)C2)cc1` [Example 43, 4-(1-(4,4,4-trifluorobutanoyl)azetidin-3-yl)benzonitrile]: 1000 to 10000 nM; `O=C(CCC(F)(F)F)N1CC(F)(c2ccc(F)cc2)C1` [Example 44, 4,4,4-trifluoro-1-(3-fluoro-3-(4-fluorophenyl)azetidin-1-yl)butan-1-one]: less than 50 nM.
